The record followed here is US20240425517A1, “NOVEL COMPOUND FOR DEGRADATION OF TARGET PROTEIN OR POLYPEPTIDE BY POLYUBIQUITINATION” (PRAZER THERAPEUTICS INC., priority 2021, published 2024).

Structures are written as SMILES.

The assay concerns the target T1, BRD4 proteins (Homo sapiens, UniProt O60885).
T1 construct: endogenous in cells; host or cells: MM.1S
The assay is described as follows: Degradation of BRD4 protein in MM.1S cell lines (Western blot densitometry). The assay is classed as cell-based. The conditions noted are these: MM.1S cells, 10 μM, 24 hours. The protocol:
To confirm that the compounds (BRD4 degraders) of Preparation Examples I′ to IV′ reduce the amount of BRD4 proteins, experiments were performed using MM.1S cell lines, which are B cells derived from the blood of multiple myeloma patients.
Specifically, the MM.1S cells were cultured in RPMI-1640 medium supplemented with 10% fetal bovine serum and Penicillin/Streptomycin (100 U/mL), transferred to a 6-well plate, and after 24 hours, the BRD4 degraders were diluted in the culture medium and the cells were treated with 10 μM each. After treatment, the cells were incubated in a C02 incubator for 24 hours. Through protein immunoblotting (Western Blot), the degrading capacity of each compound against BRD4 proteins in cells was confirmed. After cell culture was completed according to the experimental conditions, the cells were collected and centrifuged at 1,800 rpm for 3 minutes. The cells in the precipitate were lysed with RIPA (25 mM Tris-HCl pH 7.6, 150 mM NaCl, 1% NP-40, 1% sodium deoxycholate, 0.1% SDS, 1× Protease Inhibitor Cocktail), 5× sample buffer was added, and then heated at 100° C. for 15 minutes. The prepared sample was electrophoresed with sodium dodecyl sulfate poly acrylamide gel electrophoresis (SDS-PAGE), and then the proteins in the gel were transferred to a PVDF membrane using Trans-Blot Turbo. The membrane was treated with a 5% bovine serum albumin (BSA) solution and blocked at room temperature for 2 hours, and then BRD4 and R-actin antibodies were diluted in the 5% BSA solution to react with the membrane at 4° C. overnight. After washed with PBST (0.5% Tween20) 5 times, horse radish peroxidase (HRP)-conjugated secondary antibodies were diluted in PBST to react at room temperature for 2 hours, and then washed again with a PBST solution 5 times. After enzyme-substrate reaction was carried out using a HRP substrate, a signal was measured with chemi-doc equipment, and the densitometry of a band corresponding to the BRD4 protein detected in the Preparation Example Compounds was quantitatively analyzed. The case when the degrading capacity of each BRD4 degrader was reduced by less than 40% is indicated as +, the case when the degrading capacity was reduced by 40% to 70% (exclusive of 70) is indicated as ++, the case when the degrading capacity was reduced by 70% or more is indicated as +++ in Tables 16 to 19 below. As shown in the following Tables, it was confirmed that the compounds of Preparation Examples I′ to IV′ according to the present invention have excellent degrading capacity.
`Cc1sc2c(c1C)C(c1ccc(Cl)cc1)=N[C@@H](CCOC(=O)CCCCCCCCCC(=O)Nc1cccc(C#CCN)c1)c1nnc(C)n1-2.Cl` [5-109′, (S)-2-(4-(4-chlorophenyl)-2,3,9-trimethyl-6H-thieno[3,2-f][1,2,4]triazolo[4,3-a][1,4]diazepin-6-yl)ethyl 11-((3-(3-aminoprop-1-yn-1-yl)phenyl)amino)-11-oxoundecanoate hydrochloride]: the “BRD4 degrading capacity (%)” value is “+++ (the degrading capacity was reduced by 70% or more)”.
The value for `COC(=O)c1ccc(C(=O)NC2CCN(C(=O)C[C@@H]3N=C(c4ccc(Cl)cc4)c4c(sc(C)c4C)-n4c(C)nnc43)CC2)cc1C#CCN.Cl` [5-22′, methyl (S)-2-(3-aminoprop-1-yn-1-yl)-4-((1-(2-(4-(4-chlorophenyl)-2,3,9-trimethyl-6H-thieno[3,2-f][1,2,4]triazolo[4,3-a][1,4]diazepin-6-yl)acetyl)piperidin-4-yl)carbamoyl)benzoate hydrochloride] was “+++ (the degrading capacity was reduced by 70% or more)”; that for `Cc1sc2c(c1C)C(c1ccc(Cl)cc1)=N[C@@H](CC(=O)NCCCCC(=O)Nc1cccc(C#CCN)c1)c1nnc(C)n1-2.Cl` [4-164′, (S)—N-(3-(3-aminoprop-1-yn-1-yl)phenyl)-5-(2-(4-(4-chlorophenyl)-2,3,9-trimethyl-6H-thieno[3,2-f][1,2,4]triazolo[4,3-a][1,4]diazepin-6-yl)acetamido)pentanamide hydrochloride] was “++ (the degrading capacity was reduced by 40% to 70% (exclusive of 70))”.
The value for `COC(=O)c1cc(NC(=O)C[C@@H]2N=C(c3ccc(Cl)cc3)c3c(sc(C)c3C)-n3c(C)nnc32)ccc1C#CCN.Cl` [3-1′, methyl (S)-2-(3-aminoprop-1-yn-1-yl)-5-(2-(4-(4-chlorophenyl)-2,3,9-trimethyl-6H-thieno[3,2-f][1,2,4]triazolo[4,3-a][1,4]diazepin-6-yl)acetamido)benzoate hydrochloride] was “+++ (the degrading capacity was reduced by 70% or more)”; that for `COC(=O)c1ccc(C(=O)NCCCNC(=O)C[C@@H]2N=C(c3ccc(Cl)cc3)c3c(sc(C)c3C)-n3c(C)nnc32)cc1C#CCN.Cl` [5-18′, methyl (S)-2-(3-aminoprop-1-yn-1-yl)-4-((3-(2-(4-(4-chlorophenyl)-2,3,9-trimethyl-6H-thieno[3,2-f][1,2,4]triazolo[4,3-a][1,4]diazepin-6-yl)acetamido)propyl)carbamoyl)benzoate hydrochloride] was “+++ (the degrading capacity was reduced by 70% or more)”.
On to `COC(=O)c1cc(N2CCN(C(=O)C[C@@H]3N=C(c4ccc(Cl)cc4)c4c(sc(C)c4C)-n4c(C)nnc43)CC2)ccc1C#CCN.Cl` [4-2′, methyl (S)-2-(3-aminoprop-1-yn-1-yl)-5-(4-(2-(4-(4-chlorophenyl)-2,3,9-trimethyl-6H-thieno[3,2-f][1,2,4]triazolo[4,3-a][1,4]diazepin-6-yl)acetyl)piperazin-1-yl)benzoate hydrochloride], for which the “BRD4 degrading capacity (%)” value is on record as “+++ (the degrading capacity was reduced by 70% or more)”.
For the compound `Cc1sc2c(c1C)C(c1ccc(Cl)cc1)=N[C@@H](CC(=O)NCCCCCC(=O)Nc1cccc(C#CCN)c1)c1nnc(C)n1-2.Cl` [5-104′, (S)—N-(3-(3-aminoprop-1-yn-1-yl)phenyl)-6-(2-(4-(4-chlorophenyl)-2,3,9-trimethyl-6H-thieno[3,2-f][1,2,4]triazolo[4,3-a][1,4]diazepin-6-yl)acetamido)hexanamide hydrochloride], the “BRD4 degrading capacity (%)” value is on record as “++ (the degrading capacity was reduced by 40% to 70% (exclusive of 70))”.
Take `Cc1sc2c(c1C)C(c1ccc(Cl)cc1)=N[C@@H](CC(=O)NCCCC(=O)Nc1ccc(C(=O)N(C)C)c(C#CCN)c1)c1nnc(C)n1-2.Cl` [5-61′, (S)-2-(3-aminoprop-1-yn-1-yl)-4-(4-(2-(4-(4-chlorophenyl)-2,3,9-trimethyl-6H-thieno[3,2-f][1,2,4]triazolo[4,3-a][1,4]diazepin-6-yl)acetamido)butanamido)-N,N-dimethylbenzamide hydrochloride]: the “BRD4 degrading capacity (%)” value was “++ (the degrading capacity was reduced by 40% to 70% (exclusive of 70))”.
Turning to `Cc1sc2c(c1C)C(c1ccc(Cl)cc1)=N[C@@H](CC(=O)Nc1ccc(C#CCN)c(C(=O)O)c1)c1nnc(C)n1-2.Cl` [3-2′, (S)-2-(3-aminoprop-1-yn-1-yl)-5-(2-(4-(4-chlorophenyl)-2,3,9-trimethyl-6H-thieno[3,2-f][1,2,4]triazolo[4,3-a][1,4]diazepin-6-yl)acetamido)benzoic acid hydrochloride], the “BRD4 degrading capacity (%)” value is on record as “++ (the degrading capacity was reduced by 40% to 70% (exclusive of 70))”.
In the case of `COC(=O)c1ccc(C#CCN)cc1NC(=O)CCCNC(=O)C[C@@H]1N=C(c2ccc(Cl)cc2)c2c(sc(C)c2C)-n2c(C)nnc21.Cl` [5-90′, methyl (S)-4-(3-aminoprop-1-yn-1-yl)-2-(4-(2-(4-(4-chlorophenyl)-2,3,9-trimethyl-6H-thieno[3,2-f][1,2,4]triazolo[4,3-a][1,4]diazepin-6-yl)acetamido)butanamido)benzoate hydrochloride], the “BRD4 degrading capacity (%)” value is reported as “+++ (the degrading capacity was reduced by 70% or more)”.
The value for `COC(=O)c1ccc(OCCCCNC(=O)C[C@@H]2N=C(c3ccc(Cl)cc3)c3c(sc(C)c3C)-n3c(C)nnc32)cc1C#CCN.Cl` [5-12′, methyl (S)-2-(3-aminoprop-1-yn-1-yl)-4-(4-(2-(4-(4-chlorophenyl)-2,3,9-trimethyl-6H-thieno[3,2-f][1,2,4]triazolo[4,3-a][1,4]diazepin-6-yl)acetamido)butoxy)benzoate hydrochloride] was “+++ (the degrading capacity was reduced by 70% or more)”; that for `COC(=O)c1ccc(NC(=O)C[C@@H]2N=C(c3ccc(Cl)cc3)c3c(sc(C)c3C)-n3c(C)nnc32)cc1C#CCN.Cl` [3-25′, methyl (S)-2-(3-aminoprop-1-yn-1-yl)-4-(2-(4-(4-chlorophenyl)-2,3,9-trimethyl-6H-thieno[3,2-f][1,2,4]triazolo[4,3-a][1,4]diazepin-6-yl)acetamido)benzoate hydrochloride] was “+++ (the degrading capacity was reduced by 70% or more)”.
The value for `Cc1sc2c(c1C)C(c1ccc(Cl)cc1)=N[C@@H](CC(=O)NCCCCC(=O)Nc1ccc(C#CCN)cc1)c1nnc(C)n1-2.Cl` [4-163′, (S)—N-(4-(3-aminoprop-1-yn-1-yl)phenyl)-5-(2-(4-(4-chlorophenyl)-2,3,9-trimethyl-6H-thieno[3,2-f][1,2,4]triazolo[4,3-a][1,4]diazepin-6-yl)acetamido)pentanamide hydrochloride] was “+++ (the degrading capacity was reduced by 70% or more)”; that for `Cc1sc2c(c1C)C(c1ccc(Cl)cc1)=N[C@@H](CC(=O)Nc1ccc(C(=O)O)c(C#CCN)c1)c1nnc(C)n1-2.Cl` [3-26′, (S)-2-(3-aminoprop-1-yn-1-yl)-4-(2-(4-(4-chlorophenyl)-2,3,9-trimethyl-6H-thieno[3,2-f][1,2,4]triazolo[4,3-a][1,4]diazepin-6-yl)acetamido)benzoic acid hydrochloride] was “++ (the degrading capacity was reduced by 40% to 70% (exclusive of 70))”; that for `Cc1sc2c(c1C)C(c1ccc(Cl)cc1)=N[C@@H](CC(=O)NCCCC(=O)Nc1ccc(C(=O)O)c(C#CCN)c1)c1nnc(C)n1-2.Cl` [5-53′, (S)-2-(3-aminoprop-1-yn-1-yl)-4-(4-(2-(4-(4-chlorophenyl)-2,3,9-trimethyl-6H-thieno[3,2-f][1,2,4]triazolo[4,3-a][1,4]diazepin-6-yl)acetamido)butanamido)benzoic acid hydrochloride] was “++ (the degrading capacity was reduced by 40% to 70% (exclusive of 70))”.
The value for `COC(=O)c1ccc(N(C)C(=O)C2CCN(C(=O)C[C@@H]3N=C(c4ccc(Cl)cc4)c4c(sc(C)c4C)-n4c(C)nnc43)CC2)cc1C#CCN` [5-152′, methyl (S)-2-(3-aminoprop-1-yn-1-yl)-4-(1-(2-(4-(4-chlorophenyl)-2,3,9-trimethyl-6H-thieno[3,2-f][1,2,4]triazolo[4,3-a][1,4]diazepin-6-yl)acetyl)-N-methylpiperidine-4-carboxamido)benzoate trifluoroacetic acid] was “+++ (the degrading capacity was reduced by 70% or more)”.
